Assay results from patent publication US5298508A, “Irreversible inhibitors of adenosine receptors” (priority 1992, dated 1994).
Read-outs that look alike come from different tables or passages of the source.

What was measured:
central A1 receptors [1] = target: T1, central A1 receptors (Rattus norvegicus, UniProt P25099); assay type: binding
T1 construct: A1 -adenosine receptors in rat brain membranes; from tissue; host or cells: rat brain membranes
T1 sequence (P25099 1-326): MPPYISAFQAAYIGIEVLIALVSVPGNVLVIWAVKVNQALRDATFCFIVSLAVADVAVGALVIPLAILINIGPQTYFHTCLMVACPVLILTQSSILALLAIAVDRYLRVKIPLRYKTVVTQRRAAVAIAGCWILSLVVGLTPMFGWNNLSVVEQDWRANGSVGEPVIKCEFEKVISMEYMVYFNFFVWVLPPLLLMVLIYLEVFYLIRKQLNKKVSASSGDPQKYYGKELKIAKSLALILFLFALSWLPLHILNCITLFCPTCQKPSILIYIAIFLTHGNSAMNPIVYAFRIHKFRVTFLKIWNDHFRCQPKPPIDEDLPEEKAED

A1 adenosine receptors = target: T2, A1 adenosine receptors (Rattus norvegicus, UniProt P25099); assay: inhibition of binding of [3H]N6-phenylisopropyladenosine ([3H]PIA) to A1 adenosine receptors in rat cerebral cortex membranes
T2 construct: A1 adenosine receptors in rat cerebral cortex membranes; from tissue; host or cells: rat cerebral cortex membranes
T2 sequence (P25099 1-326): T1 sequence (P25099 1-326)
Protocol: Ukena et al., FEBS Letters 209;122, 1986.
For the biochemical assays, stock solutions of xanthines in the millimolar concentration range in dimethylsulfoxide were prepared and stored frozen. The solutions were warmed to 50° C. prior to dilution in aqueous medium. […] Acad. Sci. USA, 83:4089, 1986. Inhibition of binding by a range of concentrations of a xanthine or adenosine derivative was assessed in triplicate in at least three separate experiments.

central A1 receptors [2] = target: T3, central A1 receptors (Bos taurus, UniProt P28190); assay: inhibition of radioligand binding at central A1 receptors, calf brain membranes
T3 construct: A1 -adenosine receptors in membranes form calf brain; from tissue; host or cells: calf brain membranes
T3 sequence (P28190 1-326): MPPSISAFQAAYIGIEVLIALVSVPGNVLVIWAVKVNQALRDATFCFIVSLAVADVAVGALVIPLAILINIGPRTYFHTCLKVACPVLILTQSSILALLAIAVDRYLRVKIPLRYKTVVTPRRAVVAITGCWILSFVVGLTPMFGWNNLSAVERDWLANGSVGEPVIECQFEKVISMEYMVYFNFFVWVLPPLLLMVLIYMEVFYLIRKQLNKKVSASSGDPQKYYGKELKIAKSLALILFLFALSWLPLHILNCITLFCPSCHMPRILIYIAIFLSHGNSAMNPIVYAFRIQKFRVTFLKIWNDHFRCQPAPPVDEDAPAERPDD
Text: ^b against [^125 I]APNEA (i.e. N^6
^b against [^125 I]APNEA;
The compounds, at concentrations relative to the Ki -values obtained, were screened for the ability to inhibit competitive binding of the radioligands [^3 H]PIA to rat brain membranes and [^3 H]XAC to bovine brain membranes, a shown in Table 1.

[3] = Table I, rat, against [3H]PIA, read-out: Ki at central A1 receptors, rat
[4] = Table I, calf, against [125I]APNEA, read-out: Ki at central A1 receptors, calf
[5] = read-out: Ki at central A1 receptors, rat
[6] = read-out: Ki at central A1 receptors, calf

| Compound | Ki (A1 adenosine receptors; [3]) | Ki (A1 adenosine receptors; [5]) | further results |
| --- | --- | --- | --- |
| CCCn1c(=O)c2[nH]c(-c3ccc(OCC(=O)ON4C(=O)CCC4=O)cc3)nc2n(CCC)c1=O [Compound 1] | 9 ± 0.7 nM | – | inhibition at 0.5 µM (central A1 receptors [1]; read-out: % inhib (conc)): 0%; irreversible inhibition of central A1-adenosine receptors (central A1 receptors [1]; result in words): only the longest of the series, SUS-XAC, 21, inhibits binding irreversibly |
| CCCn1c(=O)c2[nH]c(-c3ccc(OCC(=O)NCC=O)cc3)nc2n(CCC)c1=O [Compound 2b] | 266 ± 40 nM | – | Ki (central A1 receptors [2]; [4]): 1.5 ± 0.1 nM; % inhib (conc) (central A1 receptors [1]; 500 nM, one hour incubation and washout, rat brain membranes, against [125I]APNEA): 0% |
| CCCn1c(=O)c2[nH]c(-c3ccc(OCC(=O)NCCN)cc3)nc2n(CCC)c1=O [Compound 3, reference compound] | 1.1 ± 0.05 nM | – | Ki (central A1 receptors [2]; [4]): 0.2 nM |
| CCCn1c(=O)c2[nH]c(-c3ccc(OCC(=O)NCCNC(=S)Nc4cccc(N=C=S)c4)cc3)nc2n(CCC)c1=O [Compound 5b] | – | – | Ki (central A1 receptors [2]): 0.5 nM; inhibition at 0.005 µM (central A1 receptors [1]; read-out: % inhib (conc)): 49%; potency of irreversible inhibition, meta versus para phenylisothiocyanate (central A1 receptors [1]; xanthine series, result in words): meta-position favored (5b) over the para-position (4b); relative potency in the binding assay, 5b versus 4b (A1 adenosine receptors; meta versus para isomer): more than twice as potent in the binding assay than 4b |
| CCCn1c(=O)c2[nH]c(-c3ccc(OCC(=O)NCCNC(=S)Nc4ccc(C)cc4)cc3)nc2n(CCC)c1=O [Compound 6] | 16 ± 2.9 nM | – | – |
| CCCn1c(=O)c2nc(-c3ccc(OCC(=O)NCCN=C(S)Nc4ccc(OC)cc4)cc3)[nH]c2n(CCC)c1=O [Compound 7] | 20 nM | – | – |
| CCCn1c(=O)c2nc(-c3ccc(OCC(=O)NCCN=C(S)Nc4ccc(F)cc4)cc3)[nH]c2n(CCC)c1=O [Compound 8] | – | 12.8 nM | – |
| CCCn1c(=O)c2[nH]c(-c3ccc(OCC(=O)NCCNC(=S)Nc4c(F)c(F)c(F)c(F)c4F)cc3)nc2n(CCC)c1=O [Compound 9] | 9.07 ± 0.9 nM | – | – |
| CCCn1c(=O)c2[nH]c(-c3ccc(OCC(=O)NCCNC(=S)Nc4ccc(Br)cc4)cc3)nc2n(CCC)c1=O [Compound 10] | 7.26 ± 0.9 nM | – | – |
| CCCn1c(=O)c2nc(-c3ccc(OCC(=O)NCCN=C(S)Nc4ccc([N+](=O)[O-])cc4)cc3)[nH]c2n(CCC)c1=O [Compound 11] | – | 5 nM | – |
| CCCn1c(=O)c2nc(-c3ccc(OCC(=O)NCCN=C(S)Nc4ccc(S(=O)(=O)O)cc4)cc3)[nH]c2n(CCC)c1=O [Compound 12] | – | 430 nM | – |
| CCCn1c(=O)c2[nH]c(-c3ccc(OCC(=O)NCCNS(=O)(=O)c4cccc(S(=O)(=O)Cl)c4)cc3)nc2n(CCC)c1=O [Compound 13] | 2.5 ± 0.47 nM | – | inhibition at 0.1 µM (central A1 receptors [1]; read-out: % inhib (conc)): 20% |
| CCCn1c(=O)c2[nH]c(-c3ccc(OCC(=O)NCCNS(=O)(=O)c4ccc(C)cc4)cc3)nc2n(CCC)c1=O [Compound 14] | 72 ± 7.2 nM | – | – |
| CCCn1c(=O)c2[nH]c(-c3ccc(OCC(=O)NCCNC(=O)Cc4ccc(NC(=O)OC(C)(C)C)cc4)cc3)nc2n(CCC)c1=O [Compound 15c] | 53 ± 12 nM | – | – |
| CCCn1c(=O)c2[nH]c(-c3ccc(OCC(=O)NCCNC(=O)Cc4ccc(N)cc4)cc3)nc2n(CCC)c1=O [Compound 15d] | 40 nM | – | – |
| CCCn1c(=O)c2[nH]c(-c3ccc(OCC(=O)NCCNC(=O)Cc4ccc(NC(=S)Nc5ccc(N=C=S)cc5)cc4)cc3)nc2n(CCC)c1=O [Compound 15e] | – | – | inhibition at 0.1 µM (central A1 receptors [1]; read-out: % inhib (conc)): 10%; Ki (A1 adenosine receptors): 30 nM |
| CCCn1c(=O)c2[nH]c(-c3ccc(OCC(=O)NCCNC(=O)CNC(=S)Nc4ccc(N=C=S)cc4)cc3)nc2n(CCC)c1=O [Compound 16c] | 6.85 ± 1.14 nM | – | inhibition at 0.5 µM (central A1 receptors [1]; read-out: % inhib (conc)): 50%; irreversible inhibition of central A1-adenosine receptors (central A1 receptors [1]; result in words): behave pharmacologically as irreversible inhibitors of central A1 -adenosine receptors |
| CCCn1c(=O)c2[nH]c(-c3ccc(OCC(=O)NCCNC(=O)CCCCC(C)=O)cc3)nc2n(CCC)c1=O [Compound 17] | 44 ± 9 nM | – | Ki (central A1 receptors [2]; [6]): 3.2 nM; inhibition at 0.5 µM (central A1 receptors [1]; read-out: % inhib (conc)): 0% |

| Compound | Ki (A1 adenosine receptors; [3]) | Ki (A1 adenosine receptors; [5]) | further results |
| --- | --- | --- | --- |
| CCCn1c(=O)c2[nH]c(-c3ccc(OCC(=O)NCCNC(=O)CBr)cc3)nc2n(CCC)c1=O [Compound 18, 8-[2-[4-bromoacetylaminoethyl[amino[carbonyl[methyloxyphenyl]]]]]-1,3-dipropylxanthine] | 17.6 ± 1.5 nM | – | – |
| CCCn1c(=O)c2[nH]c(-c3ccc(OCC(=O)NCCNC(=O)c4ccc(CBr)cc4)cc3)nc2n(CCC)c1=O [Compound 19] | 11.5 ± 1.5 nM | – | Ki (central A1 receptors [2]; [6]): 6.9 nM |
| CCCn1c(=O)c2[nH]c(-c3ccc(OCC(=O)NCCNC(=O)CCC(=O)ON4C(=O)CCC4=O)cc3)nc2n(CCC)c1=O [Compound 20b] | 20 ± 4.5 nM | – | inhibition at 0.5 µM (central A1 receptors [1]; read-out: % inhib (conc)): 0%; irreversible inhibition of central A1-adenosine receptors (central A1 receptors [1]; result in words): only the longest of the series, SUS-XAC, 21, inhibits binding irreversibly |
| CCCn1c(=O)c2[nH]c(-c3ccc(OCC(=O)NCCNC(=O)CCSSc4ccccn4)cc3)nc2n(CCC)c1=O [Compound 22] | 23.8 ± 3.51 nM | – | – |
| CCCn1c(=O)c2nc(-c3ccc(OCC(=O)NCCNC(=O)CCCN4C(=O)C=CC4=O)cc3)[nH]c2n(CCC)c1=O [Compound 23] | – | 63 nM | – |
| O=C(Cc1ccc(Nc2ncnc3c2ncn3[C@@H]2O[C@H](CO)[C@@H](O)[C@H]2O)cc1)ON1C(=O)CCC1=O [Compound 24] | – | – | Ki (A1 adenosine receptors; Table II, rat, against [3H]PIA, read-out: Ki at central A1 receptors, rat): 8.37 ± 0.73 nM |
| O=C(Cc1ccc(Nc2ncnc3c2ncn3[C@@H]2O[C@H](CO)[C@@H](O)[C@H]2O)cc1)Nc1ccc(CC(=O)ON2C(=O)CCC2=O)cc1 [Compound 25] | – | 9.6 ± 1.44 nM | – |
| NCCNC(=O)Cc1ccc(NC(=O)Cc2ccc(Nc3ncnc4c3ncn4[C@@H]3O[C@H](CO)[C@@H](O)[C@H]3O)cc2)cc1 [Compound 26a, reference compound] | – | – | Ki (central A1 receptors [2]): 0.2 nM |
| O=C(Cc1ccc(NC(=O)Cc2ccc(Nc3ncnc4c3ncn4[C@@H]3O[C@H](CO)[C@@H](O)[C@H]3O)cc2)cc1)NCCN=C=S [Compound 26b] | – | – | Ki (central A1 receptors [2]): 2.5 nM; Ki (A1 adenosine receptors): 4 nM |
| Cc1ccc(NC(=S)NCCNC(=O)Cc2ccc(NC(=O)Cc3ccc(Nc4ncnc5c4ncn5[C@@H]4O[C@H](CO)[C@@H](O)[C@H]4O)cc3)cc2)cc1 [Compound 29] | – | 3.72 ± 0.44 nM | – |
| COc1ccc(NC(=S)NCCNC(=O)Cc2ccc(NC(=O)Cc3ccc(Nc4ncnc5c4ncn5[C@@H]4O[C@H](CO)[C@@H](O)[C@H]4O)cc3)cc2)cc1 [Compound 30] | – | 5 nM | – |
| O=C(Cc1ccc(NC(=O)Cc2ccc(Nc3ncnc4c3ncn4[C@@H]3O[C@H](CO)[C@@H](O)[C@H]3O)cc2)cc1)NCCNC(=S)Nc1ccc(F)cc1 [Compound 31a] | – | 5 nM | – |
| O=C(Cc1ccc(NC(=O)Cc2ccc(Nc3ncnc4c3ncn4[C@@H]3O[C@H](CO)[C@@H](O)[C@H]3O)cc2)cc1)NCCNC(=S)Nc1ccccc1F [Compound 31b] | – | 10.7 nM | – |
| O=C(Cc1ccc(NC(=O)Cc2ccc(Nc3ncnc4c3ncn4[C@@H]3O[C@H](CO)[C@@H](O)[C@H]3O)cc2)cc1)NCCNC(=S)Nc1c(F)c(F)c(F)c(F)c1F [Compound 32] | – | 1.64 ± 0.47 nM | – |
| O=C(Cc1ccc(NC(=O)Cc2ccc(Nc3ncnc4c3ncn4[C@@H]3O[C@H](CO)[C@@H](O)[C@H]3O)cc2)cc1)NCCNC(=S)Nc1ccc(Br)cc1 [Compound 33] | – | 1.19 ± 0.14 nM | – |
| O=C(Cc1ccc(NC(=O)Cc2ccc(Nc3ncnc4c3ncn4[C@@H]3O[C@H](CO)[C@@H](O)[C@H]3O)cc2)cc1)NCCNC(=S)Nc1ccc([N+](=O)[O-])cc1 [Compound 34] | – | 1 nM | – |
| O=C(Cc1ccc(NC(=O)Cc2ccc(Nc3ncnc4c3ncn4[C@@H]3O[C@H](CO)[C@@H](O)[C@H]3O)cc2)cc1)NCCNC(=S)Nc1ccc(S(=O)(=O)O)cc1 [Compound 35] | – | 100 nM | – |
| O=C(CBr)NCCNC(=O)Cc1ccc(NC(=O)Cc2ccc(Nc3ncnc4c3ncn4[C@@H]3O[C@H](CO)[C@@H](O)[C@H]3O)cc2)cc1 [Compound 36] | – | 5 nM | – |
